According to patent US11986532B2 (Arvinas Operations, Inc., priority 2021, dated 2024):
Read-outs that look alike come from different tables or passages of the source.

Molecular target: T1, BCL6 (Homo sapiens, UniProt P41182)
T1 construct: endogenous in cells; host or cells: T47D breast cancer epithelial cells
Test: Immunofluorescence protocol for high content imaging of BCL6 (degradation) in T47D cells, 3 days compound treatment
Assay type: cell-based
Details: for DC50: read-out: Mean DC50 (nM)* category; for Dmax: read-out: Mean Dmax (%)** category
Method in brief: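 High content immunofluorescence imaging (10×, 4 fields/well) of BCL6 using rabbit primary antibody, Alexa-488 secondary, cell mask and Hoechst nuclear stain after PFA fixation. Before staining, T47D cells (7K/well) were exposed for 3 days at 37° C to 3-fold serial dilutions of compound, top final concentration 0.1 or 1 μM.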

[1] = T47D cells, 3 days compound treatment

DC50 [1] [nM]	Dmax [1] [%]	SMILES	Dmax (T47D) [%]	DC50 [nM]
–	–	CNC(=O)COc1cc2cc(Nc3nc(N4CCC(O[C@H]5C[C@H](N6CCN(c7ccc8c(c7F)C(=O)N(C7CCC(=O)NC7=O)C8=O)CC6)C5)CC4)ncc3Cl)ccc2n(C(C)C)c1=O (some centres unmarked) [Compound 413, 2-({6-[(5-chloro-2-{4-[(1r,3r)-3-{4-[2-(2,6-dioxopiperidin-3-yl)-4-fluoro-1,3-dioxo-2,3-dihydro-1H-isoindol-5-yl]piperazin-1-yl}cyclobutoxy]piperidin-1-yl}pyrimidin-4-yl)amino]-2-oxo-1-(propan-2-yl)-1,2-dihydroquinolin-3-yl}oxy)-N-methylacetamide]	< 50	10 to 50
< 10	50 to 70	CNC(=O)COc1cc2cc(Nc3nc(N4CCC(O[C@H]5C[C@H](N6CC[C@H](c7ccc8c(c7)CN(C7CCC(=O)NC7=O)C8=O)[C@H](F)C6)C5)CC4)ncc3Cl)ccc2n(C(C)C)c1=O (mixture of isomers) [Compound 131]	–	–
< 10	50 to 70	CNC(=O)COc1cc2cc(Nc3nc(N4CCC(CN5CCC6(CC5)CN(c5cc7c(cc5F)C(=O)N(C5CCC(=O)NC5=O)C7)C6)CC4)ncc3Cl)ccc2n(C(C)C)c1=O (centres unmarked) [Compound 64, 2-{[6-({5-chloro-2-[4-({2-[2-(2,6-dioxopiperidin-3-yl)-6-fluoro-1-oxo-2,3-dihydro-1H-isoindol-5-yl]-2,7-diazaspiro[3.5]nonan-7-yl}methyl)piperidin-1-yl]pyrimidin-4-yl}amino)-2-oxo-1-(propan-2-yl)-1,2-dihydroquinolin-3-yl]oxy}-N-methylacetamide]	–	–
< 10	50 to 70	CNC(=O)COc1cc2cc(Nc3nc(N4CCC(F)(CN5CC(N6CCC(c7ccc8c(c7)C(=O)N(C7CCC(=O)NC7=O)C8=O)CC6)C5)CC4)ncc3Cl)ccc2n(C(C)C)c1=O (centres unmarked) [Compound 97, 2-({6-[(5-chloro-2-{4-[(3-{4-[2-(2,6-dioxopiperidin-3-yl)-1,3-dioxo-2,3-dihydro-1H-isoindol-5-yl]piperidin-1-yl}azetidin-1-yl)methyl]-4-fluoropiperidin-1-yl}pyrimidin-4-yl)amino]-2-oxo-1-(propan-2-yl)-1,2-dihydroquinolin-3-yl}oxy)-N-methylacetamide]	–	–
50 to 100	≥ 70	CNC(=O)COc1cc2cc(Nc3nc(N4CCN(C[C@H]5C[C@H](N6CCC(c7ccc8c(c7)C(=O)N(C7CCC(=O)NC7=O)C8=O)CC6)C5)CC4)ncc3Cl)ccc2n(C(C)C)c1=O (some centres unmarked) [Compound 41, 2-[(6-{[5-chloro-2-(4-{[(1r,3r)-3-{4-[2-(2,6-dioxopiperidin-3-yl)-1,3-dioxo-2,3-dihydro-1H-isoindol-5-yl]piperidin-1-yl}cyclobutyl]methyl}piperazin-1-yl)pyrimidin-4-yl]amino}-2-oxo-1-(propan-2-yl)-1,2-dihydroquinolin-3-yl)oxy]-N-methylacetamide]	–	–
< 10	50 to 70	CNC(=O)COc1cc2cc(Nc3nc(N4CCC(CN5CCC6(CCN(c7ccc8c(c7)CN(C7CCC(=O)NC7=O)C8=O)C6)C5=O)CC4)ncc3Cl)ccc2n(C(C)C)c1=O (centres unmarked) [Compound 60, 2-{[6-({5-chloro-2-[4-({7-[2-(2,6-dioxopiperidin-3-yl)-1-oxo-2,3-dihydro-1H-isoindol-5-yl]-1-oxo-2,7-diazaspiro[4.4]nonan-2-yl}methyl)piperidin-1-yl]pyrimidin-4-yl}amino)-2-oxo-1-(propan-2-yl)-1,2-dihydroquinolin-3-yl]oxy}-N-methylacetamide]	–	–
–	–	CNC(=O)COc1cc2cc(Nc3nc(N4CCC(O[C@H]5C[C@H](N6CCN(c7ccc8c(c7)C(=O)N(C7CCC(=O)NC7=O)C8=O)C[C@@H]6C)C5)CC4)ncc3Cl)ccc2n(C(C)C)c1=O (stereo partly drawn) [Compound 261, 2-({6-[(5-chloro-2-{4-[(1r,3r)-3-[(2S)-4-[2-(2,6-dioxopiperidin-3-yl)-1,3-dioxo-2,3-dihydro-1H-isoindol-5-yl]-2-methylpiperazin-1-yl]cyclobutoxy]piperidin-1-yl}pyrimidin-4-yl)amino]-2-oxo-1-(propan-2-yl)-1,2-dihydroquinolin-3-yl}oxy)-N-methylacetamide]	50 to 70	10 to 50
< 10	50 to 70	CNC(=O)COc1cc2cc(Nc3nc(N4CCC(OC5CN([C@H]6CC[C@H](c7ccc8c(c7Cl)CN(C7CCC(=O)NC7=O)C8=O)CC6)C5)CC4)ncc3Cl)ccc2n(C(C)C)c1=O (some centres unmarked) [Compound 185]	–	–
≥ 100	≥ 70	CNC(=O)COc1cc2cc(Nc3nc(N4CCC(O[C@H]5CC[C@@H](N6CCC(c7ccc8c(c7)C(=O)N(C7CCC(=O)NC7=O)C8=O)CC6)CC5)CC4)ncc3Cl)ccc2n(C(C)C)c1=O (some centres unmarked) [Compound 110, 2-[(6-{[5-chloro-2-(4-{[(1s,4s)-4-{4-[2-(2,6-dioxopiperidin-3-yl)-1,3-dioxo-2,3-dihydro-1H-isoindol-5-yl]piperidin-1-yl}cyclohexyl]oxy}piperidin-1-yl)pyrimidin-4-yl]amino}-2-oxo-1-(propan-2-yl)-1,2-dihydroquinolin-3-yl)oxy]-N-methylacetamide]	–	–
< 10	≥ 70	CNC(=O)COc1cc2cc(Nc3nc(N4CCC(F)(CN5CCC6(CC5)CN(c5cccc7c5CN(C5CCC(=O)NC5=O)C7=O)C6)CC4)ncc3Cl)ccc2n(C(C)C)c1=O (centres unmarked) [Compound 52, 2-{[6-({5-chloro-2-[4-({2-[2-(2,6-dioxopiperidin-3-yl)-1-oxo-2,3-dihydro-1H-isoindol-4-yl]-2,7-diazaspiro[3.5]nonan-7-yl}methyl)-4-fluoropiperidin-1-yl]pyrimidin-4-yl}amino)-2-oxo-1-(propan-2-yl)-1,2-dihydroquinolin-3-yl]oxy}-N-methylacetamide]	–	–
–	–	CNC(=O)COc1cc2cc(Nc3nc(N4CCN(C[C@H]5C[C@H](N6CCN(c7ccc8c(c7)CN(C7CCC(=O)NC7=O)C8=O)CC6)C5)CC4)ncc3Cl)ccc2n(C(C)C)c1=O (some centres unmarked) [Compound 342, 2-[(6-{[5-chloro-2-(4-{[(1r,3r)-3-{4-[2-(2,6-dioxopiperidin-3-yl)-1-oxo-2,3-dihydro-1H-isoindol-5-yl]piperazin-1-yl}cyclobutyl]methyl}piperazin-1-yl)pyrimidin-4-yl]amino}-2-oxo-1-(propan-2-yl)-1,2-dihydroquinolin-3-yl)oxy]-N-methylacetamide]	≥ 70	< 10
–	–	CNC(=O)COc1cc2cc(Nc3nc(N4CCC(O[C@H]5C[C@H](N6C[C@@H](C)N(c7ccc8c(c7)C(=O)N(C7CCC(=O)NC7=O)C8=O)[C@H](C)C6)C5)CC4)ncc3Cl)ccc2n(C(C)C)c1=O (stereo partly drawn) [Compound 245, 2-({6-[(5-chloro-2-{4-[(1r,3r)-3-[(3R,5R)-4-[2-(2,6-dioxopiperidin-3-yl)-1,3-dioxo-2,3-dihydro-1H-isoindol-5-yl]-3,5-dimethylpiperazin-1-yl]cyclobutoxy]piperidin-1-yl}pyrimidin-4-yl)amino]-2-oxo-1-(propan-2-yl)-1,2-dihydroquinolin-3-yl}oxy)-N-methylacetamide]	≥ 70	10 to 50
–	–	CNC(=O)COc1cc2cc(Nc3nc(N4CCC(O[C@H]5C[C@H](N6CCC7(CN(c8ccc9c(c8F)CN(C8CCC(=O)NC8=O)C9=O)C7)C6)C5)CC4)ncc3Cl)ccc2n(C(C)C)c1=O (some centres unmarked) [Compound 405, 2-({6-[(5-chloro-2-{4-[(1r,3r)-3-{2-[2-(2,6-dioxopiperidin-3-yl)-4-fluoro-1-oxo-2,3-dihydro-1H-isoindol-5-yl]-2,6-diazaspiro[3.4]octan-6-yl}cyclobutoxy]piperidin-1-yl}pyrimidin-4-yl)amino]-2-oxo-1-(propan-2-yl)-1,2-dihydroquinolin-3-yl}oxy)-N-methylacetamide]	≥ 70	< 10

SMILES	DC50 [1] [nM]	Dmax [1] [%]	Dmax (T47D) [%]	DC50 [nM]
CNC(=O)COc1cc2cc(Nc3nc(N4CCC(O[C@H]5C[C@H](N6CCN(c7ccc8c(c7C)C(=O)N(C7CCC(=O)NC7=O)C8=O)C[C@@H]6C)C5)CC4)ncc3Cl)ccc2n(C(C)C)c1=O (stereo partly drawn) [Compound 194, 2-({6-[(5-chloro-2-{4-[(1r,3r)-3-[(2S)-4-[2-(2,6-dioxopiperidin-3-yl)-4-methyl-1,3-dioxo-2,3-dihydro-1H-isoindol-5-yl]-2-methylpiperazin-1-yl]cyclobutoxy]piperidin-1-yl}pyrimidin-4-yl)amino]-2-oxo-1-(propan-2-yl)-1,2-dihydroquinolin-3-yl}oxy)-N-methylacetamide]	< 10	≥ 70	–	–
CNC(=O)COc1cc2cc(Nc3nc(N4CCC(O[C@H]5C[C@H](N6CCN(c7ccc8c(c7Cl)CN(C7CCC(=O)NC7=O)C8=O)[C@H](C)C6)C5)CC4)ncc3Cl)ccc2n(C(C)C)c1=O (stereo partly drawn) [Compound 202, 2-({6-[(5-chloro-2-{4-[(1r,3r)-3-[(3R)-4-[4-chloro-2-(2,6-dioxopiperidin-3-yl)-1-oxo-2,3-dihydro-1H-isoindol-5-yl]-3-methylpiperazin-1-yl]cyclobutoxy]piperidin-1-yl}pyrimidin-4-yl)amino]-2-oxo-1-(propan-2-yl)-1,2-dihydroquinolin-3-yl}oxy)-N-methylacetamide]	< 10	≥ 70	–	–
CNC(=O)COc1cc2cc(Nc3nc(N4CCC(O[C@H]5C[C@H](N6CCC(c7cc(F)c8c(c7)CN(C7CCC(=O)NC7=O)C8=O)CC6)C5)CC4)ncc3Cl)ccc2n(C(C)C)c1=O (some centres unmarked) [Compound 92, 2-({6-[(5-chloro-2-{4-[(1r,3r)-3-{4-[2-(2,6-dioxopiperidin-3-yl)-7-fluoro-1-oxo-2,3-dihydro-1H-isoindol-5-yl]piperidin-1-yl}cyclobutoxy]piperidin-1-yl}pyrimidin-4-yl)amino]-2-oxo-1-(propan-2-yl)-1,2-dihydroquinolin-3-yl}oxy)-N-methylacetamide]	< 10	≥ 70	–	–
